From patent US20100016421A1, “METHODS FOR DETERMINING SENSITIVITY TO AMINOFLAVONES” (priority 2008, published 2010)
Read-outs that look alike come from different tables or passages of the source.

Key:
MDA-MB-231 = assay: MTT assay, MDA-MB-231 breast cancer cell line; assay type: cell-based, human; conditions: for IC50: Homo sapiens
Experimental: (§1) The breast cancer cell lines shown in Table 2 were screened to determine the localization of the aryl hydrocarbon receptor (AhR) in accordance with the techniques discussed above. MTT assays were conducted to measure cell death on various breast cancer cell lines.
(§2) The inhibitory concentration 50% were determined by MTT assay and following the NCI DTP in vitro testing procedures (http://dtp.nci.nih.gov/branches/btb/ivclsp.html). Three independent MTT in vitro tumor cell growth inhibition experiments were conducted and a mean IC50 value generated as shown in Table 4.

OVCAR-3 = assay: Cytotoxicity, OVCAR-3 ovarian cancer cell line; assay type: cell-based; conditions: Homo sapiens
Description: (§3) Similarly, the ovarian cancer cell lines shown in Table 3 were screened to determine the localization of the Aryl hydrocarbon receptor (AhR). As shown below, and further illustrated in FIGS. 2 and 3, all cell lines where the AhR is localized predominantly in the cytoplasm (e.g. OVCAR-3 and IGROV-1) were more sensitive to treatment with AFP464 than tumor cells where the AhR is localized predominantly in the nucleus (e.g., OVCAR-8).

T47D = assay: MTT assay, T47D breast cancer cell line; assay type: cell-based, human; conditions: for IC50: Homo sapiens
Experimental: as §1, §2

ER-positive cell lines = conditions: NCI 60 screen, read-out: sensitivity (order of magnitude); cited from earlier work
γ-H2AX foci in MCF10a = assay: Immunofluorescence of phosphorylated γ-H2AX, MCF10a; assay type: cell-based, human
Description: (§4) The phosphorylated γ-H2AX is an indicator of a DNA-damage response in cells.

[1] = system: γ-H2AX foci in MCF-7 HER2-18; assay: Immunofluorescence of phosphorylated γ-H2AX, MCF-7 HER2-18; assay type: cell-based, human
Description: as §4

ADDP = assay: Cytotoxicity, ADDP ovarian cancer cell line; assay type: cell-based; conditions: Homo sapiens
Description: as §3

Maximum tolerated dose = conditions: mouse, in vivo, iv; intravenously
Experimental: Next, the treatment and data evaluation will be discussed. […] The maximum tolerated dose (MTD) for AFP464 was determined prior to initiation of the experiment as 75 mg/kg/d intravenously. […]. […] AFP464 was given on days 1, 3, 5, 15, 17, and 19.

IGROV-1 = assay: Cytotoxicity (MTT), IGROV-1 ovarian cancer cell line; assay type: cell-based; conditions: Homo sapiens
Description: as §3
(§5) AhR localization correlates with cytotoxic activity of AFP464, as discussed above. […] The growth curves for all three cell lines resulting from 5 day continuous exposure of the cells to AFP464 in 96-well plates and the detection of cell growth by conversion of methyltetrazolium into formazan by viable cells (MTT assay) are shown. All cell lines in FIG. 3 have defects in the BRCA tumor suppressor genes responsible for very aggressive forms of hereditary breast and ovarian cancer. MX-1 have BRCA1 deletions and BRCA2 mutations, HCC1937 are BRCA1 mutant and completely defective, IGROV1 are defective for BRCA2 (±).

[2] = system: γ-H2AX foci in MDA-MB-231; assay: Immunofluorescence of phosphorylated γ-H2AX, MDA-MB-231; assay type: cell-based, human
Description: as §4

A2780 = assay: Cytotoxicity, A2780 ovarian cancer cell line; assay type: cell-based; conditions: Homo sapiens
Description: as §3

MCF-7 HER2-18 = assay: MTT assay, MCF-7 HER2-18 cell line; assay type: cell-based, human; conditions: for IC50: Homo sapiens
Experimental: as §1, §2

MCF-7 = assay: MTT assay, MCF-7 breast cancer cell line; assay type: cell-based, human; conditions: for IC50: Homo sapiens, MCF7
Experimental: as §1, §2

AG6000 = assay: Cytotoxicity, AG6000 ovarian cancer cell line; assay type: cell-based; conditions: Homo sapiens
Description: as §3

γ-H2AX foci in MCF-7 = assay: Immunofluorescence of phosphorylated γ-H2AX, MCF-7; assay type: cell-based, human
Description: as §4

MCF-7 TAM1 = assay: MTT assay, MCF-7 TAM1 cell line; assay type: cell-based, human; conditions: for IC50: Homo sapiens, MCF7:TAM1
Experimental: as §1, §2

CYP1A1 = assay: Real time PCR of CYP1A1 expression, MDA-MB-231
[3] = system: γ-H2AX foci in MCF-7 TAM1; assay: Immunofluorescence of phosphorylated γ-H2AX, MCF-7 TAM1; assay type: cell-based, human
Description: as §4

OVCAR-8 = assay: Cytotoxicity, OVCAR-8 ovarian cancer cell line; assay type: cell-based; conditions: Homo sapiens
Description: as §3

[4] = system: human tumor xenograft MDA-MB-231; assay: MDA-MB-231 subcutaneous xenograft in nude mice
MCF10A = assay: MTT assay, MCF10A normal breast cell line; assay type: cell-based, human; conditions: for IC50: Homo sapiens, MCF-10A
Experimental: as §1, §2

γ-H2AX foci in T47D = assay: Immunofluorescence of phosphorylated γ-H2AX, T47D; assay type: cell-based, human
Description: as §4

CYP1B1 = assay: Real time PCR of CYP1B1 expression, MDA-MB-231
MX-1 = assay: MTT assay, MX-1 triple negative breast cancer cell line; assay type: cell-based; conditions: Homo sapiens, MX1, 120 h, MX-1, 5 day continuous exposure
Description: as §5

HCC1937 = assay: MTT assay, HCC1937 breast cancer cell line; assay type: cell-based; conditions: Homo sapiens
Description: as §5, §2

ERα in MDA-MB-231 = assay: Western blot of ERα induction, MDA-MB-231; assay type: cell-based, human; conditions: MDA-MB-231, 60 hours at […] and 13.5 μM
Experimental: Lane 1 of each of FIGS. 4A and 4B is a control in which the respective cells were treated with DMSO.

Hs578t = assay: MTT assay, Hs578t breast cancer cell line; assay type: cell-based, human
Experimental: as §2

[5] = in mice; cited from earlier work
SKBR3 = assay: MTT assay, SKBR3 breast cancer cell line; assay type: cell-based; conditions: Homo sapiens, SK-BR-3; SKBR3, mean of three independent MTT experiments; read-out: AF IC50
Experimental: as §2

BT 20 = assay: MTT assay, BT 20 breast cancer cell line; assay type: cell-based; conditions: Homo sapiens; BT 20, mean of three independent MTT experiments; read-out: AF IC50
Experimental: as §2

MDA-MB-468 = assay: MTT assay, MDA-MB-468 breast cancer cell line; assay type: cell-based; conditions: Homo sapiens; MDA-MB-468, mean of three independent MTT experiments; read-out: AF IC50
Experimental: as §2

[6] = system: HCC1937, BT 20, MDA-MB-468, and SKBR3 ER-negative tumor cells; assay: MTT assay, sensitive ER-negative cell lines (summary); assay type: cell-based; conditions: Homo sapiens; range over sensitive ER-negative cell lines; read-out: AF IC50 concentrations
Experimental: as §2
(§6) The SKBR3, T47D, MCF-7, MCF-7 Tam1, and MCF-7 Her2-18 cell lines are all of a luminal type gene cluster. […] Based on previous NCI cell line screen results discussed above, ER-negative tumors were thought to be resistant to aminoflavone. […] Thus, the gene profile relating to ER status alone may not predict the sensitivity of the tumor to treatment with AF. AFP464 is not only effective in ER-positive breast cancer cells, which are always of luminal type histologies, but are also effective in the basal A subtype of ER-negative breast cancers.

[7] = system: SKBR3, T47D, MCF-7, MCF-7 Tam1, and MCF-7 Her2-18 cell lines; assay: MTT assay, luminal type cell lines (summary); assay type: cell-based; conditions: Homo sapiens; range over luminal type cell lines; read-out: AF IC50 concentrations
Experimental: as §2, §6

[8] = system: ER-negative, or “triple-negative,” or basal B breast cancer cell lines; assay: Sensitivity to aminoflavone after HDAC inhibitor pre-treatment; assay type: cell-based; conditions: Homo sapiens
[9] = MDA-MB-231, SAHA for 48 hours followed by AFP464 for 6 hours
[10] = MDA-MB-231, SAHA for 48 hours followed by AFP464 for 24 hours
[11] = mean of three independent MTT experiments, read-out: AF IC50

Cc1c(F)c(N)c2c(=O)cc(-c3ccc(NC(=O)[C@@H](N)CCCCN)c(F)c3)oc2c1F [AFP464]
IC50 (MDA-MB-231; MDA-MB-231, MTT, read-out: IC50): 25000 nM | IC100 (MDA-MB-231; MDA-MB-231, MTT): >100 µM | IC50 (OVCAR-3): 252 nM | IC50 (T47D; MTT, read-out: IC50): 14 nM | IC100 (T47D; MTT): 20 nM | IC50 (ER-positive cell lines): ~10 nM | γ-H2AX Foci (γ-H2AX foci in MCF10a): no | γ-H2AX Foci [1]: yes | IC50 (ADDP): 2500 nM | MTD (Maximum tolerated dose): 75 mg/kg/day | IC50 (IGROV-1; IGROV-1): 420 nM | IC50 (IGROV-1; IGROV-1, 120 h, IGROV1, 5 day continuous exposure, MTT): 10 to 200 nM | γ-H2AX Foci [2]: no | IC50 (A2780): 5000 nM | IC50 (MCF-7 HER2-18; MCF-7 HER2-18, MTT, read-out: IC50): 20 nM | IC100 (MCF-7 HER2-18; MCF-7 HER2-18, MTT): 375 nM | IC50 (MCF-7; MCF-7, MTT, read-out: IC50): 16 nM | IC100 (MCF-7; MCF-7, MTT): 300 nM | IC50 (AG6000): > 10000 nM | γ-H2AX Foci (γ-H2AX foci in MCF-7): yes | IC50 (MCF-7 TAM1; MCF-7 TAM1, MTT, read-out: IC50): 25 nM | IC100 (MCF-7 TAM1; MCF-7 TAM1, MTT): 200 nM | expression of RNA for CYP1A1 (CYP1A1; [9]): increased expression | expression of RNA for CYP1A1 (CYP1A1; [10]): little expression | γ-H2AX Foci [3]: yes | IC50 (OVCAR-8): 13000 nM | % Growth Inhibition [d29] ([4]; AFP464 35 mg/kg i.v. Day 1, 3, 5, 15, 17, 19): 23% | Opt. Test/Control % [d] ([4]; AFP464 35 mg/kg i.v. Day 1, 3, 5, 15, 17, 19, optimum d26): 77 [d26] % | % Growth Inhibition [d29] ([4]; AFP464 70 mg/kg i.v. Day 1, 3, 5, 15): 15% | Opt. Test/Control % [d] ([4]; AFP464 70 mg/kg i.v. Day 1, 3, 5, 15, optimum d28): 85 [d28] % | IC50 (MCF10A; MTT, read-out: IC50): 3000 nM | IC100 (MCF10A; MTT): 9 µM | γ-H2AX Foci (γ-H2AX foci in T47D): yes | expression of RNA for CYP1B1 (CYP1B1; [9]): increased expression | expression of RNA for CYP1B1 (CYP1B1; [10]): little expression | IC50 (MX-1): 30000 nM | IC50 (HCC1937; 120 h, HCC1937, 5 day continuous exposure, MTT, read-out: IC50): 10 to 200 nM

O=C(CCCCCCC(=O)Nc1ccccc1)NO [SAHA, suberoylanilide hydroxamic acid, reference compound]
IC100 (MDA-MB-231; SAHA in MDA-MB-231): 13.5 µM | ERα induction (ERα in MDA-MB-231): increases | IC100 (Hs578t; SAHA in Hs578T): 100 µM | Opt. Test/Control % [d] ([4]; Vorinostat 50 mg/kg p.o. Day −3 to −1, 12-14, optimum d26): 71 [d26] % | MTD [5]: 175 mg/kg/day

Cc1c(F)c(N)c2c(=O)cc(-c3ccc(N)c(F)c3)oc2c1F [AF, aminoflavone]
IC50 (MDA-MB-231; MDA-MB-231, mean of three independent MTT experiments, read-out: AF IC50): 25000 nM | IC50 (T47D; [11]): 14 nM | IC50 (SKBR3): 16 nM | IC50 (Hs578t; Homo sapiens, Hs-578T, Hs578t, mean of three independent MTT experiments, read-out: AF IC50): 20000 nM | IC50 (MCF-7 HER2-18; MCF-7 Her2-18, mean of three independent MTT experiments, read-out: AF IC50): 20 nM | IC50 (MCF-7; MCF-7, mean of three independent MTT experiments, read-out: AF IC50): 16 nM | IC50 (BT 20): 20 nM | IC50 (MDA-MB-468): 12 nM | IC50 [6]: 10 to 20 nM | IC50 (MCF-7 TAM1; MCF-7 Tam1, mean of three independent MTT experiments, read-out: AF IC50): 25 nM | IC50 (MCF10A; [11]): 3000 nM | IC50 [7]: 16 to 20 nM | IC50 [8]: ~1000 nM | IC50 (HCC1937; HCC1937, mean of three independent MTT experiments, read-out: AF IC50): 10 nM
